Experimental data published in ChEMBL document CHEMBL1201862, “PubChem BioAssay data set” (2004).
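Compound exposure: 48 hours, 5 concentrations, 96-well plates. GI50 = concentration required for 50% inhibition of growth.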 Activity calls are given as the source filed them. No stated cut-off is given here; in the data, active = GI50 up to about 1.1 µM and inactive = higher.

How the values were obtained:
Test in all cases: NCI anticancer screen, dose series, 48 h
A498 = test system: A498
EKVX = test system: EKVX
HCT-116 = test system: HCT-116
HOP-62 = test system: HOP-62
HT-29 = test system: HT-29
K562 = test system: K562
MDA-MB-231 = test system: MDA-MB-231
NCI-H460 = test system: NCI-H460
RPMI-8226 = test system: RPMI-8226
SF-539 = test system: SF-539
SK-MEL-28 = test system: SK-MEL-28
SK-OV-3 = test system: SK-OV-3
SNB-19 = test system: SNB-19
SR = test system: SR
UO-31 = test system: UO-31
MDA-N = test system: MDA-N
CCRF-CEM = test system: CCRF-CEM

Compound | GI50 (A498) | GI50 (EKVX) | GI50 (HCT-116) | GI50 (HOP-62) | GI50 (HT-29) | GI50 (K562) | GI50 (MDA-MB-231) | GI50 (NCI-H460) | GI50 (RPMI-8226) | GI50 (SF-539) | GI50 (SK-MEL-28) | GI50 (SK-OV-3) | GI50 (SNB-19) | GI50 (SR) | GI50 (UO-31) | GI50 (MDA-N) | GI50 (CCRF-CEM)
COc1ccc(C2=NNC(=O)c3ccccc3N2c2nc(-c3cccs3)nc3cc(OC)c(OC)cc23)cc1 | 2.61 µM (inactive) | 20.9 µM (inactive) | 3.92 µM (inactive) | 3.13 µM (inactive) | 3.15 µM (inactive) | 24.3 µM (inactive) | 2.81 µM (inactive) | 4.43 µM (inactive) | 3.71 µM (inactive) | 2.79 µM (inactive) | 2.39 µM (inactive) | 17 µM (inactive) | 2.79 µM (inactive) | 0.673 µM (active) | 4.34 µM (inactive) |  | 
O=C(NCCC1CN(C(=O)OCc2ccccc2)c2ccccc21)OCc1ccccc1 (centres undefined) | > 100 µM (inactive) | 64.6 µM (inactive) | 71.9 µM (inactive) | > 100 µM (inactive) | > 100 µM (inactive) | > 100 µM (inactive) | > 100 µM (inactive) | 96.8 µM (inactive) | > 100 µM (inactive) |  | > 100 µM (inactive) | > 100 µM (inactive) | > 100 µM (inactive) |  | > 100 µM (inactive) | > 100 µM (inactive) | 
O=C(/C=C/c1ccc(Cl)c(Cl)c1)CCN1CCN(CCC(=O)/C=C/c2ccc(Cl)c(Cl)c2)CC1 | 34.9 µM (inactive) | 30.4 µM (inactive) | 7.55 µM (inactive) | 21.9 µM (inactive) | 17.7 µM (inactive) | 22.6 µM (inactive) | 25 µM (inactive) | 17.2 µM (inactive) | 3.21 µM (inactive) | 14.4 µM (inactive) | 20.4 µM (inactive) | 45.6 µM (inactive) |  | 12.3 µM (inactive) | 16.8 µM (inactive) |  | 6.59 µM (inactive)
Fc1cc(-c2cc(-c3ccc4c(c3)OCO4)n[nH]2)c(Cl)cc1Cl |  | 1.75 µM (inactive) | 2 µM (inactive) | 2.29 µM (inactive) | 4 µM (inactive) | 4.45 µM (inactive) | 1.75 µM (inactive) | 3.61 µM (inactive) | 4.54 µM (inactive) | 2.31 µM (inactive) | 5.22 µM (inactive) | 2.13 µM (inactive) | 3.5 µM (inactive) | 7.29 µM (inactive) | 2.51 µM (inactive) |  | 11.9 µM (inactive)
Clc1ccc(C2=NCON=C2c2ccc(Cl)cc2)cc1 |  | 15.1 µM (inactive) | 13.6 µM (inactive) | 25.6 µM (inactive) | 13.6 µM (inactive) | 23.9 µM (inactive) | 18.1 µM (inactive) | 19.7 µM (inactive) | 16.8 µM (inactive) | 15.3 µM (inactive) |  | 14.5 µM (inactive) | 28 µM (inactive) |  | 15.7 µM (inactive) | 18.8 µM (inactive) | 24.3 µM (inactive)
C=C1c2nc3ccccc3n2C=C(c2ccc(C)cc2)N1c1ccc(OC)cc1 | > 72.9 µM (inactive) | 32.5 µM (inactive) | 19.5 µM (inactive) | > 100 µM (inactive) | 8.89 µM (inactive) | 6.41 µM (inactive) | > 100 µM (inactive) | 59.8 µM (inactive) | 13 µM (inactive) | > 69.5 µM (inactive) | > 70.5 µM (inactive) | > 100 µM (inactive) | > 100 µM (inactive) | 3.22 µM (inactive) | 44.5 µM (inactive) |  | 34.4 µM (inactive)
C[N+]1(C)CCC(C#N)(c2ccccc2)CC1 | > 100 µM (inactive) | > 100 µM (inactive) | > 100 µM (inactive) | > 100 µM (inactive) | > 100 µM (inactive) | > 100 µM (inactive) |  | > 100 µM (inactive) | > 100 µM (inactive) |  | > 100 µM (inactive) | > 100 µM (inactive) | > 100 µM (inactive) | > 100 µM (inactive) | > 100 µM (inactive) | > 100 µM (inactive) | 0.65 µM (active)
